{"source": "paper PMC10943827", "about": "“Engineering Saccharomyces cerevisiae for targeted hydrolysis and fermentation of glucuronoxylan through CRISPR/Cas9 genome editing” (Microbial Cell Factories, 2024)", "target": "T1, XylA (Aspergillus oryzae, UniProt Q2UR38)", "T1 construct": "gene xlnD; codon-optimized gene, N-terminal S. cerevisiae SED1 secretory signal peptide, expressed from X2 locus of S. cerevisiae CEN.PK XXX; secretome, intact cells and lysate assayed", "T1 sequence (Q2UR38 21-798)": "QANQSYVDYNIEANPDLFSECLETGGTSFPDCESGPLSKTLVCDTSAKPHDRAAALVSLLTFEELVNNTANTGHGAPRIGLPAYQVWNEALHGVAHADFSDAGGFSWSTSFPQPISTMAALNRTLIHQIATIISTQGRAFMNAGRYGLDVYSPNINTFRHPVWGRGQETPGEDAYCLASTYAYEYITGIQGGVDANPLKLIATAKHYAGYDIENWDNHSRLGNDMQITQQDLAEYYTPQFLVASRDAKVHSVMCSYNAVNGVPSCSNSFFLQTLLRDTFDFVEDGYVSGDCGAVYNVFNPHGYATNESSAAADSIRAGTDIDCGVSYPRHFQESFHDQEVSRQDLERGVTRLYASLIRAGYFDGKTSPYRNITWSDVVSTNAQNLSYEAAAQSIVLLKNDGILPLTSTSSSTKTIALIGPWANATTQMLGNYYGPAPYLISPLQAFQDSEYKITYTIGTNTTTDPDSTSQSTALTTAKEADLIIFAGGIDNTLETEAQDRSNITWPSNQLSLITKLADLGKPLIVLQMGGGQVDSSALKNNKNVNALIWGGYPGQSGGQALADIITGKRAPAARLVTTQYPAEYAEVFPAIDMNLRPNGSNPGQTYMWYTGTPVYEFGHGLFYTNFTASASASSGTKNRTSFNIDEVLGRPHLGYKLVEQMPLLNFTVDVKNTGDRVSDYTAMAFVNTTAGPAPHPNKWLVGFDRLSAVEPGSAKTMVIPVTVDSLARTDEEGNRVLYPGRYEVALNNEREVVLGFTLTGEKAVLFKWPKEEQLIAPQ", "assay": "p-nitrophenol release at […] nm, secretome / cell / intracellular fractions of XylA strain versus parent XXX strain", "assay_type": "cell-based", "conditions": "5 mM substrate, 20 mM sodium phosphate pH 7, 30 °C, 30 min", "data": [{"smiles": "O=[N+]([O-])c1ccc(O[C@@H]2OC[C@@H](O)[C@H](O)[C@H]2O)cc1", "note": "[p-nitrophenyl-β-D-xylopyranoside]", "values": [{"measurement": "p-nitrophenol release at 405 nm, secretome / cell / intracellular fractions of X", "result": "subcellular β-xylosidase activity quantified using p-nitrophenyl-β-D-xylopyranoside"}]}]}
